Measured values published in ChEMBL document CHEMBL1201862, “PubChem BioAssay data set” (2004).
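Method: 48-hour compound exposure of cells in 96-well plates, five concentrations, linear interpolation of endpoints. Here, GI50 denotes the concentration required for 50% inhibition of growth.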 Activity calls are given as the source filed them. No stated cut-off is given here; in the data, active = GI50 up to about 1.1 µM and inactive = higher.

What was measured:
Assay in all cases: growth of human tumour cells (NCI), 48 h
[1] = test system: 786-0
[2] = test system: A549
[3] = test system: ACHN
[4] = test system: BT-549
[5] = test system: CAKI-1
[6] = test system: CCRF-CEM
[7] = test system: COLO 205
[8] = test system: DU-145
[9] = test system: EKVX
[10] = test system: HCC 2998
[11] = test system: HCT-116
[12] = test system: HCT-15
[13] = test system: HL-60
[14] = test system: HOP-62
[15] = test system: HT-29
[16] = test system: Hs-578T
[17] = test system: IGROV-1
[18] = test system: K562
[19] = test system: KM12
[20] = test system: LOX IMVI
[21] = test system: M14
[22] = test system: MCF7
[23] = test system: MDA-MB-435
[24] = test system: MDA-N
[25] = test system: MOLT-4
[26] = test system: Malme-3M
[27] = test system: NCI-H226
[28] = test system: NCI-H23
[29] = test system: NCI-H460
[30] = test system: NCI-H522
[31] = test system: NCI/ADR-RES
[32] = test system: OVCAR-3
[33] = test system: OVCAR-4
[34] = test system: OVCAR-5
[35] = test system: OVCAR-8
[36] = test system: PC-3
[37] = test system: RPMI-8226
[38] = test system: SF-268
[39] = test system: SF-295
[40] = test system: SF-539
[41] = test system: SK-MEL-28
[42] = test system: SK-MEL-2
[43] = test system: SK-MEL-5
[44] = test system: SK-OV-3
[45] = test system: SN12C
[46] = test system: SNB-19
[47] = test system: SNB-75
[48] = test system: SR
[49] = test system: SW-620
[50] = test system: T47D
[51] = test system: TK-10
[52] = test system: U-251
[53] = test system: UACC-257
[54] = test system: UACC-62
[55] = test system: UO-31
[56] = test system: A498
[57] = test system: HOP-92
[58] = test system: RXF 393
[59] = test system: MDA-MB-231

Measured: GI50

Cc1ncc([N+](=O)[O-])n1CCNC(=O)CCn1ccnc1[N+](=O)[O-]
inactive: [1] > 100 µM | [2] > 100 µM | [3] > 100 µM | [4] > 100 µM | [5] > 100 µM | [6] > 100 µM | [7] > 100 µM | [8] > 100 µM | [9] > 100 µM | [10] > 100 µM | [11] > 100 µM | [13] > 100 µM | [14] > 100 µM | [15] > 100 µM | [16] 66.8 µM | [17] > 100 µM | [18] > 100 µM | [19] > 100 µM | [20] > 100 µM | [21] > 100 µM | [22] > 100 µM | [23] > 100 µM | [24] > 100 µM | [25] > 100 µM | [26] > 100 µM | [27] > 100 µM | [28] > 100 µM | [29] > 100 µM | [30] > 100 µM | [31] > 100 µM | [32] > 100 µM | [33] > 100 µM | [34] > 100 µM | [35] > 100 µM | [36] > 100 µM | [37] > 100 µM | [38] > 100 µM | [39] > 100 µM | [40] > 100 µM | [41] > 100 µM | [42] > 100 µM | [43] > 100 µM | [44] > 100 µM | [45] > 100 µM | [46] > 100 µM | [47] > 100 µM | [48] > 100 µM | [49] > 100 µM | [50] > 100 µM | [51] > 100 µM | [52] > 100 µM | [53] > 100 µM | [54] > 100 µM | [55] > 100 µM
> 100 µM: [12]

CC(=O)Nc1ccc2c(c1)/C(=N/c1ccc(C(=O)O)cc1)c1ccccc1-2
active: [13] < 0.01 µM
43.9 µM: [12]
inactive: [1] > 100 µM | [56] > 100 µM | [2] > 100 µM | [3] > 100 µM | [4] 47.1 µM | [5] > 100 µM | [6] 26.4 µM | [7] 57.3 µM | [8] > 100 µM | [9] 45.9 µM | [10] > 100 µM | [11] > 100 µM | [14] 86.1 µM | [57] 37.9 µM | [15] 59.6 µM | [16] 92.7 µM | [17] 46.3 µM | [18] 63.1 µM | [19] 51.4 µM | [20] 50.9 µM | [21] 99.1 µM | [22] 2.42 µM | [23] > 100 µM | [24] > 100 µM | [25] 32.1 µM | [26] > 100 µM | [27] 39.5 µM | [28] > 100 µM | [29] 44.7 µM | [30] 70 µM | [31] 95.1 µM | [32] 99.8 µM | [33] 41 µM | [34] > 100 µM | [35] 76.7 µM | [36] 83.6 µM | [37] 36 µM | [58] > 100 µM | [38] > 100 µM | [39] 96.4 µM | [41] > 100 µM | [43] 25.8 µM | [44] > 100 µM | [45] > 100 µM | [46] 55.6 µM | [49] > 100 µM | [50] 28 µM | [51] > 100 µM | [52] > 100 µM | [53] > 100 µM | [54] 91.4 µM | [55] 38.3 µM

COc1ccc(N2C(=O)CSC2c2cc3cc(Br)ccc3nc2Cl)cc1 (stereo not drawn)
31.5 µM: [12]
inactive: [1] > 50 µM | [56] > 50 µM | [2] 48.6 µM | [3] 19 µM | [4] > 50 µM | [5] 27.5 µM | [6] 31.6 µM | [7] > 50 µM | [8] > 50 µM | [9] > 50 µM | [10] > 50 µM | [11] > 50 µM | [13] > 50 µM | [14] > 50 µM | [57] > 50 µM | [15] > 50 µM | [16] > 50 µM | [17] > 50 µM | [18] 14.1 µM | [19] 20.9 µM | [20] 37.6 µM | [21] 38.5 µM | [22] 31.7 µM | [59] > 50 µM | [23] 23.7 µM | [25] 21 µM | [26] > 50 µM | [27] > 50 µM | [28] > 50 µM | [29] 22.1 µM | [30] 27.4 µM | [31] 44.1 µM | [32] > 50 µM | [33] > 50 µM | [34] > 50 µM | [35] > 50 µM | [36] > 50 µM | [37] 41.8 µM | [58] > 50 µM | [38] > 50 µM | [39] 19.9 µM | [40] > 50 µM | [41] > 50 µM | [42] 35.6 µM | [43] 37.4 µM | [44] > 50 µM | [45] > 50 µM | [46] > 50 µM | [47] > 50 µM | [48] 18.7 µM | [49] > 50 µM | [50] 38.3 µM | [51] > 50 µM | [53] 17.9 µM | [54] 10.3 µM | [55] > 50 µM

CCOC(=O)c1nc2ccccc2nc1NCc1ccc(Cl)cc1Cl
> 100 µM: [12]
inactive: [1] > 100 µM | [56] > 100 µM | [2] > 100 µM | [3] > 100 µM | [4] > 100 µM | [5] > 100 µM | [6] > 100 µM | [7] > 100 µM | [9] > 100 µM | [11] > 100 µM | [14] > 100 µM | [57] > 100 µM | [15] > 100 µM | [16] 65.6 µM | [17] > 100 µM | [18] > 100 µM | [19] > 100 µM | [20] > 100 µM | [21] > 100 µM | [22] > 100 µM | [59] > 100 µM | [23] 97.9 µM | [24] 96.8 µM | [25] > 100 µM | [26] > 100 µM | [27] > 100 µM | [28] > 100 µM | [29] 35 µM | [30] > 100 µM | [31] > 100 µM | [32] > 100 µM | [33] > 100 µM | [34] > 100 µM | [35] > 100 µM | [36] > 100 µM | [37] > 100 µM | [58] > 100 µM | [38] > 100 µM | [39] > 100 µM | [40] > 100 µM | [42] > 100 µM | [43] > 100 µM | [44] > 100 µM | [46] > 100 µM | [47] 23.6 µM | [48] 60.7 µM | [49] > 100 µM | [50] > 100 µM | [51] > 100 µM | [52] > 100 µM | [53] > 100 µM | [54] > 100 µM | [55] > 100 µM

O=C1CSC(c2c[nH]c3ccccc23)N1c1cccc(Cl)c1 (stereo not drawn)
inactive: [1] 25.5 µM | [56] 60.1 µM | [2] 56.1 µM | [3] 24.2 µM | [4] 43.9 µM | [6] 31.9 µM | [7] 50.7 µM | [8] > 100 µM | [9] > 100 µM | [10] 54.3 µM | [11] 29.5 µM | [13] 36.6 µM | [14] 54.7 µM | [57] 60.4 µM | [15] 37.8 µM | [16] 38.4 µM | [17] 27.9 µM | [18] 41 µM | [19] 50.1 µM | [21] 49.1 µM | [22] 39.6 µM | [59] 24 µM | [23] 33.6 µM | [24] 36.9 µM | [25] 38.5 µM | [27] 66.5 µM | [28] 54 µM | [29] 37.6 µM | [31] 36.1 µM | [32] 27.9 µM | [33] 38 µM | [34] 73.8 µM | [35] > 100 µM | [37] 25.7 µM | [58] > 100 µM | [38] 89.5 µM | [39] 44.1 µM | [40] 61.1 µM | [41] > 100 µM | [42] 30.1 µM | [43] 40 µM | [44] > 100 µM | [45] 52.2 µM | [46] 68.2 µM | [47] 46.7 µM | [49] 50.7 µM | [50] > 100 µM | [51] 89.3 µM | [52] 37.2 µM | [53] > 100 µM | [54] 45.8 µM | [55] 84.5 µM
40.4 µM: [12]
